# From EP0207696A1, “Dialkylaminotetrahydrobenzothiazoles and oxazoles” (ELI LILLY AND COMPANY, priority 1985, dated 1987)
# Assays:
# [1] = system: 6-hydroxydopamine-lesioned rats; experiment: turning behavior in 6-hydroxydopamine-lesioned rats; type: in vivo; conditions: 1000 mcg/kg; first 15 minutes after the end of the latency period
# Description: Dopamine agonists are also known to affect turning behavior in 6-hydroxydopamine-lesioned rats in a test procedure designed to uncover compounds useful for the treatment of Parkinsonism. In this test, nigroneostriatal-lesioned rats are employed, as prepared by the procedure of Ungerstedt and Arbuthnott, Brain Res, 24, 485 (1970). A compound having dopamine agonist activity causes the rats to turn in circles contralateral to the side of the lesion. After a latency period, which varies from compound to compound, the number of turns is counted over a 15-minute period.
# Results obtained from such testing for (±)-2-amino-6-di-n-propylamino-5,6,7,8-tetrahydrobenzothiazole dihydrobromide are set forth in Table 2 below. In the table, column 1 gives the dose and column 2 the average number of turns observed in first 15 minutes after the end of the latency period.
# [2] = system: prolactin secretion; experiment: inhibition of prolactin secretion in reserpinized rats; type: in vivo, rats of the Sprague-Dawley strain; conditions: percent prolactin inhibition; 50 mcg/kg intraperitoneally; serum one hour after treatment; reserpine-pretreated male rats
# Description: As previously stated, the compounds of this invention (wherein neither R^3 nor R^4 is H) are receptor agonists; ie, they are capable of increasing the quantities of various neurohormones--dopamine and norepi- nephrine in particular--available for interaction with specific receptors. For example, the compound according to XX wherein R^1 and R^2 are H and R^3 and R^4 are both n-propyl, is a specific dopamine D-2 agonist.
# Adult male rats of the Sprague-Dawley strain weighing about 200 g were housed in an air-conditioned room with controlled lighting (lights on 6 a.m. - 8 p.m.) and fed lab chow and water ad libitum. Each rat received an intraperitoneal injection of 2.0 mg of reserpine in aqueous suspension 18 hours before administration of the test drug. The purpose of the reserpine was to keep the rat prolactin levels uniformly elevated. The compound was dissolved in 10 percent ethanol, and injected intraperitoneally to groups of ten rats at preselected dose levels. A control group of 10 intact males received an equivalent amount of 10 percent ethanol. One hour after treatment, all rats were killed by decapitation, and 150 µl aliquots of serum were assayed for prolactin.
# The difference between the prolactin levels of the treated rats and the control rats, divided by the prolactin level of the control rats gives the percent inhibition of prolactin secretion attributable to the given dose. […]
# [3] = system: anesthetized spontaneously hypertensive rats; experiment: blood pressure in anesthetized spontaneously hypertensive rats; type: in vivo; conditions: anesthetized SHR
# Protocol: Compounds according to XX, particularly those wherein both R^3 and R^4 are methyl, reduce the blood pressure of anesthetized spontaneously hypertensive rats, as illustrated by the following experiment: • Adult male spontaneously hypertensive rats (SHR) (Taconic Farms, Germantown, New York), weighing approximately 300 g. were anesthetized with pentobarbital sodium (60 mg./kg., i.p.). The trachea was cannulated and the SHR respired room air. Pulsatile arterial blood pressure was measured from a cannulated carotid artery using a Statham transducer (P23 ID). Mean arterial blood pressure was calculated as diastolic blood pressure plus 1/3 pulse pressure. Cardiac rate was monitored by a cardiotachometer which was triggered by the systolic pressure pulse. Drug solutions were administered i.v. through a catheter placed in a femoral vein.
# Arterial blood pressure and cardiac rate were recorded on a multichannel oscillograph (Beckman, Model R511A). Fifteen minutes were allowed to elapse following surgery for equilibration of the preparation.
# Table 3 which follows gives the results of this test using (±)-2-amino-6-di-n-propyl-5,6,7,8-tetra- hydrobenzothiazole dihydrobromide. In Table 3, column 1 gives the dose level, column 2, the change in mean arterial blood pressure.
# [4] = system: conscious SHR; experiment: hypotensive action in conscious SHR; type: in vivo; conditions: 1 mg/kg i.v.
# Protocol: In another test for hypotensive action conscious SHR, cannulated in the femoral artery and vein, were used. The drug was administered i.v. (±)-2-Amino-6-dimethylamino-5,6,7,8-tetrahydrobenzothiazole was tested in this system as the dihydrobromide salt at a 1 mg/kg dose. In the table, column 1 gives time in minutes after injection and columns 2 and 3 the mean percent decrease in arterial pressure and heart rate respectively for that time interval.
compound,measurement,setting,value
"CCCN(CCC)C1CCc2nc(N)sc2C1 (racemic) [(±)-2-Amino-6-di-n-propylamino-5,6,7,8-tetrahydrobenzothiazole]",Average number of Turns,[1],51
same,% Inhibition,[2],30%
same,Decrease in Mean Arterial Blood Pressure,[3]; 1 mcg/kg i.v.,-16.1 ± 2.4
same,Decrease in Mean Arterial Blood Pressure,[3]; 10 mcg/kg i.v.,-21.0 ± 2.0
same,Decrease in Mean Arterial Blood Pressure,[3]; 100 mcg/kg i.v.,-34.1 ± 3.2
same,Decrease in Mean Arterial Blood Pressure,[3]; 1000 mcg/kg i.v.,+13.5 ± 4.4
"CN(C)C1CCc2nc(N)sc2C1 (racemic) [(±)-2-Amino-6-dimethylamino-5,6,7,8-tetrahydrobenzothiazole]",PERCENT CHANGE FROM CONTROL Blood Pressure,[4]; 5 minutes after injection,-3.6%
same,PERCENT CHANGE FROM CONTROL Heart Rate,[4]; 5 minutes after injection,-12.3%
same,PERCENT CHANGE FROM CONTROL Blood Pressure,[4]; 15 minutes after injection,-17.1%
same,PERCENT CHANGE FROM CONTROL Heart Rate,[4]; 15 minutes after injection,-17.7%
same,PERCENT CHANGE FROM CONTROL Blood Pressure,[4]; 30 minutes after injection,-18.6%
same,PERCENT CHANGE FROM CONTROL Heart Rate,[4]; 30 minutes after injection,-15.5%
same,PERCENT CHANGE FROM CONTROL Blood Pressure,[4]; 45 minutes after injection,-16.9%
same,PERCENT CHANGE FROM CONTROL Heart Rate,[4]; 45 minutes after injection,-8.3%
same,PERCENT CHANGE FROM CONTROL Blood Pressure,[4]; 60 minutes after injection,-17.2%
same,PERCENT CHANGE FROM CONTROL Heart Rate,[4]; 60 minutes after injection,-5.2%
same,PERCENT CHANGE FROM CONTROL Blood Pressure,[4]; 90 minutes after injection,-16.9%
same,PERCENT CHANGE FROM CONTROL Heart Rate,[4]; 90 minutes after injection,-0.7%
same,PERCENT CHANGE FROM CONTROL Blood Pressure,[4]; 120 minutes after injection,-15.8%
same,PERCENT CHANGE FROM CONTROL Heart Rate,[4]; 120 minutes after injection,-4.1%
same,PERCENT CHANGE FROM CONTROL Blood Pressure,[4]; 180 minutes after injection,-14.7%
same,PERCENT CHANGE FROM CONTROL Heart Rate,[4]; 180 minutes after injection,-4.1%
